# Assay: recombinant UMI read abundance after kanamycin selection (control-corrected) (log10(CPM+1)); higher = more efficient recombination; extreme values may be limits of the assay; sequences stand for … in AGTGCAGAGAAAATCGGCCAGTTTTCTCTGCCTGCAGTCCGCATGCCGTGGGACCCCTTGGGTTCTAACCTGTTGCCTAGATTTATGCAGCGGACTGCCTTTCTCCCAAAGTGATAAACCGG…AGGTTGGTTTCACT; site = the 11-nt donor
# In short: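 Sequencing read counts were converted to CPM, averaged over two replicates and scaled by control-derived factors. Results are given as log10(CPM+1). The reads covered the donor–target junction of recombinant UMIs from a pooled Escherichia coli screen of donor and donor-binding-loop pairs for the IS621 bridge recombinase.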
# 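Also: IS621 bridge recombinase in Escherichia coli cells against a fixed T5 target plasmid.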
row,Sequence,recombinant UMI read abundance (log10)
1,CCGTTTCCATGGACCGGTTTTCCCGGTAATCCGTATTTGCT (site CCGTTTCCTAG),0
2,CCGTTTCCATGGACCGGTTTTCCCGGTAATCCGTATTTGCT (site CCGTTTGCTAG),0
3,CCGTTTCCATGGACCGGTTTTCCCGGTAATCCGTATTTGCT (site CCGTTTTCTAG),0
4,CCTAAAACATGGACCGGTTTTCCCGGTAATCCGTATTTGAT (site CCTAAAACTAT),0
5,CCTAAAACATGGACCGGTTTTCCCGGTAATCCGTATTTGAT (site CCTAAACCTAT),0.00551
6,CCTAAAACATGGACCGGTTTTCCCGGTAATCCGTATTTGAT (site CCTAAAGCTAT),0.00636
7,CCTAAAACATGGACCGGTTTTCCCGGTAATCCGTATTTGAT (site CCTAAATCTAT),0
8,CCTAAAACATGGACCGGTTTTCCCGGTAATCCGTATTTGGC (site CCTAAAACTGC),0
9,CCTAAAACATGGACCGGTTTTCCCGGTAATCCGTATTTGGC (site CCTAACACTGC),0
10,CCTAAAACATGGACCGGTTTTCCCGGTAATCCGTATTTGGC (site CCTAAGACTGC),0
11,CCTAAAACATGGACCGGTTTTCCCGGTAATCCGTATTTGGC (site CCTAATACTGC),0
12,CCTAAAGCATGGACCGGTTTTCCCGGTAATCCGTATTTGGT (site CCTAAAGCTAA),0.00229
13,CCTAAAGCATGGACCGGTTTTCCCGGTAATCCGTATTTGGT (site CCTAAAGCTAC),0
14,CCTAAAGCATGGACCGGTTTTCCCGGTAATCCGTATTTGGT (site CCTAAAGCTAG),0
15,CCTAAAGCATGGACCGGTTTTCCCGGTAATCCGTATTTGGT (site CCTAAAGCTAT),0
16,CCTAATACATGGACCGGTTTTCCCGGTAATCCGTATTTGAC (site CCTAATACTGA),0
17,CCTAATACATGGACCGGTTTTCCCGGTAATCCGTATTTGAC (site CCTAATACTGC),0
18,CCTAATACATGGACCGGTTTTCCCGGTAATCCGTATTTGAC (site CCTAATACTGG),0
19,CCTAATACATGGACCGGTTTTCCCGGTAATCCGTATTTGAC (site CCTAATACTGT),0
20,CCTAATTCATGGACCGGTTTTCCCGGTAATCCGTATTTGGC (site CCTAATACTGC),0
21,CCTAATTCATGGACCGGTTTTCCCGGTAATCCGTATTTGGC (site CCTAATCCTGC),0
22,CCTAATTCATGGACCGGTTTTCCCGGTAATCCGTATTTGGC (site CCTAATGCTGC),0
23,CCTAATTCATGGACCGGTTTTCCCGGTAATCCGTATTTGGC (site CCTAATTCTGC),0
24,CCTAGAACATGGACCGGTTTTCCCGGTAATCCGTATTTGAG (site ACTAGAACTCT),0.00253
25,CCTAGAACATGGACCGGTTTTCCCGGTAATCCGTATTTGAG (site CCTAGAACTCT),0.00591

row,Sequence,recombinant UMI read abundance (log10)
1,CCTAGAACATGGACCGGTTTTCCCGGTAATCCGTATTTGAG (site GCTAGAACTCT),0.0133
2,CCTAGAACATGGACCGGTTTTCCCGGTAATCCGTATTTGAG (site TCTAGAACTCT),0.00636
3,CCTAGAGCATGGACCGGTTTTCCCGGTAATCCGTATTTGTT (site CCTAGAGCTAA),0.633
4,CCTAGGTCATGGACCGGTTTTCCCGGTAATCCGTATTTGCC (site CCTAGGTCTGG),0
5,CCTAGTGCATGGACCGGTTTTCCCGGTAATCCGTATTTGGT (site ACTAGTGCTAC),0.00584
6,CCTAGTGCATGGACCGGTTTTCCCGGTAATCCGTATTTGGT (site CCTAGTGCTAC),0.533
7,CCTAGTGCATGGACCGGTTTTCCCGGTAATCCGTATTTGGT (site GCTAGTGCTAC),0.0365
8,CCTAGTGCATGGACCGGTTTTCCCGGTAATCCGTATTTGGT (site TCTAGTGCTAC),0.0125
9,CCTATATCATGGACCGGTTTTCCCGGTAATCCGTATTTGTC (site CCAATATCTGA),0
10,CCTATATCATGGACCGGTTTTCCCGGTAATCCGTATTTGTC (site CCCATATCTGA),0.00678
11,CCTATATCATGGACCGGTTTTCCCGGTAATCCGTATTTGTC (site CCGATATCTGA),0
12,CCTATATCATGGACCGGTTTTCCCGGTAATCCGTATTTGTC (site CCTATATCTGA),0
13,CCTCACACATGGACCGGTTTTCCCGGTAATCCGTATTTGTA (site CCACACACTTA),0
14,CCTCACACATGGACCGGTTTTCCCGGTAATCCGTATTTGTA (site CCCCACACTTA),0.0116
15,CCTCACACATGGACCGGTTTTCCCGGTAATCCGTATTTGTA (site CCGCACACTTA),0.0283
16,CCTCACACATGGACCGGTTTTCCCGGTAATCCGTATTTGTA (site CCTCACACTTA),0.166
17,CCTCGAGCATGGACCGGTTTTCCCGGTAATCCGTATTTGTG (site CCTCGAGCTCA),0.234
18,CCTCTTGCATGGACCGGTTTTCCCGGTAATCCGTATTTGAG (site CCTCTTGCTCT),0.0146
19,CCTCTTTCATGGACCGGTTTTCCCGGTAATCCGTATTTGAG (site CCTCTTTCTCT),0.00323
20,CCTGAAGCATGGACCGGTTTTCCCGGTAATCCGTATTTGAT (site CCTAAAGCTAT),0.231
21,CCTGAAGCATGGACCGGTTTTCCCGGTAATCCGTATTTGAT (site CCTCAAGCTAT),0
22,CCTGAAGCATGGACCGGTTTTCCCGGTAATCCGTATTTGAT (site CCTGAAGCTAT),0.209
23,CCTGAAGCATGGACCGGTTTTCCCGGTAATCCGTATTTGAT (site CCTTAAGCTAT),0
24,CCTGATACATGGACCGGTTTTCCCGGTAATCCGTATTTGGC (site CCTAATACTGC),0
25,CCTGATACATGGACCGGTTTTCCCGGTAATCCGTATTTGGC (site CCTCATACTGC),0

row,Sequence,recombinant UMI read abundance (log10)
1,CCTGATACATGGACCGGTTTTCCCGGTAATCCGTATTTGGC (site CCTGATACTGC),0
2,CCTGATACATGGACCGGTTTTCCCGGTAATCCGTATTTGGC (site CCTTATACTGC),0
3,CCTGCACCATGGACCGGTTTTCCCGGTAATCCGTATTTGGA (site CCTGCACCTTC),0.00678
4,CCTGCTACATGGACCGGTTTTCCCGGTAATCCGTATTTGCG (site CCTGCTACTCG),0.0136
5,CCTGGCACATGGACCGGTTTTCCCGGTAATCCGTATTTGAA (site CCTGGCACTTT),0.0111
6,CCTGGTGCATGGACCGGTTTTCCCGGTAATCCGTATTTGTA (site CCTGGTGCTTA),0.698
7,CCTGTAGCATGGACCGGTTTTCCCGGTAATCCGTATTTGAG (site CCTGTAGCTCT),0.443
8,CCTGTATCATGGACCGGTTTTCCCGGTAATCCGTATTTGCA (site ACAGTATCTTG),0
9,CCTGTATCATGGACCGGTTTTCCCGGTAATCCGTATTTGCA (site CCTGTATCTTG),0
10,CCTGTCGCATGGACCGGTTTTCCCGGTAATCCGTATTTGAG (site CCTGTCGCTCT),0.909
11,CCTGTGGCATGGACCGGTTTTCCCGGTAATCCGTATTTGTA (site CCTGTGGCTTA),0.327
12,CCTTAAGCATGGACCGGTTTTCCCGGTAATCCGTATTTGAT (site CCTAAAGCTAT),0
13,CCTTAAGCATGGACCGGTTTTCCCGGTAATCCGTATTTGAT (site CCTCAAGCTAT),0.0107
14,CCTTAAGCATGGACCGGTTTTCCCGGTAATCCGTATTTGAT (site CCTGAAGCTAT),0
15,CCTTAAGCATGGACCGGTTTTCCCGGTAATCCGTATTTGAT (site CCTTAAGCTAT),0.00726
16,CCTTAGACATGGACCGGTTTTCCCGGTAATCCGTATTTGAG (site CATTAGACTCT),0.0191
17,CCTTAGACATGGACCGGTTTTCCCGGTAATCCGTATTTGAG (site CCTTAGACTCT),0.0167
18,CCTTAGACATGGACCGGTTTTCCCGGTAATCCGTATTTGAG (site CGTTAGACTCT),0.0159
19,CCTTAGACATGGACCGGTTTTCCCGGTAATCCGTATTTGAG (site CTTTAGACTCT),0.0107
20,CCTTGTCCATGGACCGGTTTTCCCGGTAATCCGTATTTGCG (site CCTTGTCCTCG),0.00291
21,CCTTTACCATGGACCGGTTTTCCCGGTAATCCGTATTTGAA (site CCTTTACCTTT),0.019
22,CCTTTCTCATGGACCGGTTTTCCCGGTAATCCGTATTTGCG (site CCTTTCTCTCG),0
23,CCTTTGCCATGGACCGGTTTTCCCGGTAATCCGTATTTGTG (site CCTTTGCCTCA),0.00549
24,CGAACATCATGGACCGGTTTTCCCGGTAATCCGTATTTGCC (site CGAACATCTGG),0.671
25,CGAACATCATGGACCGGTTTTCCCGGTAATCCGTATTTGCC (site CGATCATCTAG),0
